Measured values reported in EP0618203A1, “3-O-acylated catechins and method of producing same” (MITSUI NORIN CO., LTD., priority 1993, dated 1994).

Tests used:
[1] = Antioxidative activity in salad oil, Rancimat method (induction time); settings: 100ppm in salad oil, 120°C, Control 3.40
Experimental: We investigated the antioxidative activity of the acylated derivatives of (-)-epigallocatechin, one of the most powerful antioxidants in tea. […] (The reaction was conducted at a temperature of 120°C).

[2] = Solubility in fats and oils (turbidity of salad oil, absorbance at 660nm); type: physicochemical; settings: sample added to salad oil (Honen Corporation) at 100ppm; turbidity as absorbance at 660nm; Control 0.057; lower = better dissolved
Experimental: Each sample was added to salad oil (Honen Corporation) in a concentration of 100ppm, and turbidity was determined by measuring absorbance at 660nm.

Row | OD 660 [2] | Structure (SMILES) | Induction Time [1] [h]
1 | – | CCCC(=O)O[C@@H]1Cc2c(O)cc(O)cc2O[C@@H]1c1cc(O)c(O)c(O)c1 [(-)-3-0-Butyryl epigallocatechin, (-)-3-0-butyryl-epigallocatechin] | 6.07
2 | – | CCC(=O)O[C@@H]1Cc2c(O)cc(O)cc2O[C@@H]1c1cc(O)c(O)c(O)c1 [(-)-3-0-Propionyl epigallocatechin, (-)-3-0-propionyl epigallocatechin] | 6.02
3 | 0.277 | Oc1cc(O)c2c(c1)O[C@H](c1cc(O)c(O)c(O)c1)[C@H](O)C2 [(-)-Epigallocatechin, (-)-epigallocatechin] | 6.03
